Patent US20240262844A1, “PYRIDINIUM SALTS AND METHODS OF USE” (UNIVERSITY OF WYOMING, priority 2023, published 2024)
Structures can show the parent of a compound that is named as a salt.

System: HEK293T cells
Test: In-situ chemoproteomic tryptophan profiling of live HEK293T cells (peptide-level enrichment)
Type: cell-based, Human
Procedure: Cell culture and in-situ tryptophan probe treatment: Cell lines were cultured at 37° C. with 5% C02. Human embryonic kidney 293 cells expressing a mutant version of the SV40 large T antigen (HEKT293T cells) were grown in Dulbecco's Modified Eagle Medium (DMEM, Gibco) supplemented with 10% fetal bovine serum and 1% penicillin/streptomycin. For in-situ labeling, cells were grown to 90% confluence, washed with Dulbecco's phosphate buffered saline (DPBS), treated with 100x stocks of the tryptophan probes (the pyridinium salts) in OptiMem (GibCo) to generate final concentrations (0 μM, 1 μM, 10 μM, and 100 μM) in 1% dimethylsulfoxide (DMSO). Cells were incubated for 1 hour at 37° C. with 5% C02 followed by photo-activation at the respective wavelengths for 20 minutes at 4° C. Cells were harvested with a cell scraper, washed 3× with DPBS, and pellets were stored at −80° C. until further use. The following light sources were used for photo-activation: • Pyridinium salt 1a (also called, probe 1a): wavelength=302 nm; light source=Analytikjena, UVP 3UV Lamp, 8W. • Pyridinium salt 1b (also called, probe 1b): wavelength=320 nm; light source=Analytikjena, UVP 3UV Lamp, 8W, equipped with 320 nm long-pass filter. • Pyridinium salt 2b (also called, probe 2b): wavelength=440 nm; light source=Kessil PR-160L-440 nm LED, 45W. • Pyridinium salt 2d (also called, probe 2d): wavelength=440 nm; light source=Kessil PR-160L-440 nm LED, 45W.
In-situ tryptophan probe sample processing for peptide-level characterization: Cell pellets were lysed via sonication (QSonica) at 50% amplitude, 2 seconds ON, 3 seconds OFF, 30 seconds in 40 mM HEPES pH 7.5 (4-(2-hydroxyethyl)-1-piperazineethanesulfonic acid), 1.5 mM magnesium chloride (MgCl2), 1% Sodium dodecyl sulfate (SDS), 0.8% NP-40 (also known as nonyl phenoxypolyethoxylethanol), and 1x protease inhibitors (Thermo). Protein concentration was determined by BCA (Pierce). 400 μg protein lysate were taken for copper-catalyzed azide-alkyne cycloaddition (CuAAC) reactions with 100 μM of the acid cleavable DAPBS Biotin Alkyne (Click Chemistry Tools), 250 μM copper sulfate (CuSO4), 500 μM BTTP (C20H34N10O2) (Click Chemistry Tools), and 2.5 mM ascorbate and incubated for 60 minutes at R.T. Samples were precipitated with methanol:chloroform and re-suspended in 50 mM HEPES pH 8.0 containing 1% RapiGest SF (Waters). The samples were reduced with 10 mM dithiothreitol (DTT) (Pierce) and alkylated with 25 mM iodoacetamide (Pierce). The samples were diluted down to 0.1% RapiGest SF and treated with 4 μg Trypsin/LysC (Promega) at 37° C. for 16 hours. The digested peptides were than labeled with isobaric tandem mass tag (TMT) reagents (Thermo) as specified by the manufacturer. The labeled peptides were then combined, concentrated to remove acetonitrile, and re-suspended in 50 mM HEPES pH 8.0 containing 0.2% SDS. The labeled peptides were then treated with 100 μL Neutravidin resin as a 50% slurry (Peirce) for 16 hours at R.T. The following day, the Neutravidin resin was washed extensively with 50 mM HEPES pH 8.0 containing 0.2% SDS (3×), 50 mM HEPES pH 8.0 (5x), and double-distilled water (ddH2O) (5×). The bound peptides were then cleaved from the resin by incubating with 100 μL 10% formic acid for 30 minutes (2×).
Quantitative proteomics by two-dimensional nano liquid chromatography-tandem mass spectrometry (nLC-MS/MS): For protein-level characterization, the TMT-labeled sample were reconstituted in 0.1% formic acid (FA)/2% acetonitrile for offline high-pH reversed phase separation (RP10) using a Dionex UltiMate 3000 high-performance liquid chromatography (HPLC) system with fraction collection using Chromeleon v.6.8 (Thermo) software. Separation was achieved on a Waters Xbridge C18 3.5 μm 2.1×150 mm HPLC column (Waters) using a flow rate of 250 μL min-1 and the following ternary gradient and conditions: mobile phase A=water (HPLC grade), mobile phase B=acetonitrile (HPLC grade), and mobile phase C=200 mM ammonium acetate, pH 10. […]

[1] = about 100 μM probe, 60 min 37° C., 440 nm 20 min 4° C.

plasma membrane permeation (inferred from subcellular localization of labeled proteins): readily crosses the plasma membrane
thermal stability under whole cell culture conditions (no peptide enrichment without 440 nm photoirradiation): robust thermal stability
Compound: COc1ccc2cc(-c3cc(C)[n+](N(C)C(=O)OCCCCCCN=[N+]=[N-])c(C)c3)ccc2c1 [Pyridinium salt 2d, 1-((((6-azidohexyl)oxy)carbonyl)(methyl)amino)-4-(6-methoxynaphthalen-2-yl)-2,6-dimethylpyridin-1-ium tetrafluoroborate]
probe concentration giving measurable two-fold enrichment of Trp-modified peptides (440 nm photoirradiation): about 10 μM
number of Trp-modified peptide fragments showing dose-response behavior [1]: 290
number of unique proteins corresponding to Trp-modified peptide fragments [1]: 209
number of unique peptides harboring a tryptophan modification (chemoselectivity profile, in situ): 221
selectivity for tryptophan, relative amino acid frequency taken into account (versus His, Tyr, Cys modifications, in situ): about 82%
